# Test results: US20050209295A1, “Methimazole derivatives and tautomeric cyclic thiones to inhibit cell adhesion” (priority 2004, published 2005)
# Legend:
# Format in all cases: cell-based, human
# IRF-1 [1] = assay: EMSA of TNF-α induced IRF-1 binding activity to VCAM-1 promoter; details: 0.5 mM and 1 mM; 2 hr. TNF-α; HAEC nuclear extract
# Description: Nuclear Extracts and EMSA: Nuclear extracts are prepared from harvested HAEC using NE-PER® extraction reagents (Pierce Chemical Co.; Rockford, Ill.) in the presence of a protease inhibitor cocktail (PMSF, Leupeptin, Pepstatin-A). Oligonucleotides (Biosynthesis Inc.; Lewisville, Tex.) are annealed and precipitated double stranded oligonucleotides end labeled with γ-^32P-ATP using T4 polynucleotide kinase enzyme. Binding reactions (20 min., room temperature) included ^32P-labeled probe (activity 100,000 cpm), 3-6 μg HAEC nuclear extract, 1 μg poly(dI-dC), 1 mM DTT, 10% glycerol and 1× binding buffer. Binding buffer (10×) for NF-κB EMSA is 200 mM HEPES-KOH (pH7.9), 340 mM KCl, 50 mM MgCl2, 5 mM EDTA (pH 8.0), 1% Triton X-100. Binding buffer (10×) for IRF-1 EMSA is 100 mM Tris-HCL (pH 7.5), 500 mM NaCl, 50 mM MgCl2, 10 mM EDTA (pH 8.0). In competition studies, nuclear extracts are incubated with 100 fold molar excess of unlabeled double stranded oligonucleotide. In supershift studies, nuclear extracts are incubated with 2 μg of appropriate antibodies. After the incubations, reaction mixtures are electrophoresed (160V, room temperature) on 5% non-denaturing polyacrylamide gels containing 5% glycerol in 1×TBE (50 mM Tris, 50 mM boric acid, and 1 mM EDTA). Gels are dried and autoradiographed. Each experiment is replicated at least twice. […]
# IRF-1 [2] = assay: TNF-alpha-induced IRF-1 protein levels (Western blot)
# Description: Cell culture and treatment of HAEC: Human aortic endothelial cells (HAEC; Cambrex Bio Science Walkersville, Inc., Walkersville, Md.) are cultured in M199 supplemented with 8% FBS, 100 μg/ml heparin, 10 ng/ml endothelial growth factor, 100 μg/ml hypothalamus extract, 2 mM L-glutamine, 1% non-essential amino acids, 100 units/ml penicillin and 100 μg/ml streptomycin. HAEC are subcultured on gelatin pre-coated: 96-well tissue culture plates (Corning Incorporated; Corning, N.Y.) for viability assays and ELISA; 100-mm tissue culture dishes (BD Falcon; Franklin Lakes, N.J.) for Northern blot analyses, Western blot analyses and EMSA; 35-mm tissue culture dishes (Corning) for adhesion assays and on 24-well tissue culture plates for luciferase promoter assays (BD Falcon). All experiments are performed with confluent HAEC monolayers. Unless noted otherwise, HAEC are treated with 25 ng/ml TNF-α, in the absence or presence of C-10 or 0.25% DMSO (carrier control for C-10), for 2-24 hrs. The concentration of DMSO is held constant at 0.25% (unless indicated otherwise) for all of the C-10 conditions.
# Western blot analysis: Whole cell lysates are prepared in lysis buffer (150 mM NaCl, 1% IGEPAL CA-630, 50 mM Tris-HCL pH 8.0). 20 μg of lysates are then resolved on 4-12% Bis-Tris PAGE gels under denaturing conditions using the NuPAGE Bis-Tris System (Invitrogen; Carlsbad, Calif.). Proteins are transferred to nitrocellulose membranes, which are probed with IRF-1 antibody. Subsequent binding of HRP conjugated goat anti-rabbit Ab (sc-2054, Santa Cruz Biotechnology, Inc.) is detected using Lumigen PS-3 detection reagents (Amersham Pharmacia Biotech.; Piscataway, N.J.).
# [3] = system: U937 cell adhesion to HAEC; assay: Flow adhesion assay: U937 cell adhesion to TNF-α activated HAEC; details: shear stress 1.8 dynes/cm^2
# Description: U937 cells (American Type Culture Collection; Manassas, Va.) are cultured in RPMI supplemented with 8% FBS, 2 mM L-glutamine, 100 units/ml penicillin and 100 μg/ml streptomycin. For the adhesion assays, U937 cells are washed, resuspended to 1×10^8 cells/ml in RPMI and held on ice (<4 hrs.) until the time they are used in the flow adhesion assay.
# Flow adhesion assays: A parallel plate flow chamber (Glycotech; Rockville, Md.), similar to that described by McIntire, Smith and colleagues (34) is used in this study. Our particular set up has been described previously (20). A 35-mm tissue culture dish containing a confluent HAEC monolayer is loaded into the flow chamber. After a brief rinse, U937 cells (5*10^5 cells/ml in assay buffer) are drawn over the HAEC monolayer at a shear stress of 1.8 dynes/cm^2. To determine U937 cell accumulation, the number of U937 cells adherent (either rolling or firmly adherent) to the HAEC monolayer in 8 different fields of view after 2.5 minutes of flow is determined, averaged and normalized to the area of the field of view to give the result for that particular run. Such an assay is done at least 3 times. In certain experiments, TNF-α activated HAEC, in the absence or presence of C-10, are treated with mAbs HEL3/2 or 51-10C9 (10 μg/ml) or a combination of HEL3/2 and 51-10C9. […]
structure (smiles),measurement,setting,value
Cn1c(-c2ccccc2)cnc1S [5-Phenylmethimazole],effect on formation of TNF-α induced IRF-1 complex (EMSA),IRF-1 [1],inhibits
same,effect on TNF-α induced IRF-1 protein expression,"IRF-1 [2]; 0.5 mM or 1 mM, 2 hr. TNF-α, HAEC",reduced
same,% INHIBITION of TNF-alpha-induced IRF-1 Protein levels,"IRF-1 [2]; 10 :M, mean ± SD",76 ± 12%
same,inhibition at 5000 µM,"IRF-1 [2]; Homo sapiens, 5 mM, mean ± SD",95 ± 5%
same,effect on TNF-α induced U937 cell adhesion to HAEC,"[3]; 4 hr. TNF-α, C-10 0.5 mM, mAbs 10 μg/ml",little effect
same,effect on TNF-α induced U937 cell adhesion to HAEC,"[3]; 24 hr. TNF-α, C-10 0.1 mM alone vs. DMSO",significantly reduced
